Laboratory results: patent publication US4748153A, “Compounds having somatostatin-like activity useful as local anti-inflammatory agents” (Merck & Co., Inc., priority 1987, dated 1988)
Residues, ends and D or L forms follow the SMILES beside them.

Experiments:
[1] = test system: inhibition of growth hormone, insulin and glucogen secretion; assay: Potency relative to somatostatin (SRIF); conditions: SRIF assigned a value of 1, based upon inhibition of growth hormone
Procedure: (§1) Following the same procedure as described above for Assay 1, additional compounds were tested for local; i.e., topical, anti-inflammatory activity. […] In Table IV, the potency of each compound tested relative to that of somatostatin is also shown, the somatostatin (SRIF) potency being assigned a value of 1 and based upon its inhibition of growth hormone, insulin and glucogen secretion.

[2] = test system: cellular proliferation (granuloma); assay: Pellet granuloma assay, compound applied locally to subcutaneously implanted pellets (Assays 1, 2, 4); assay type: in vivo, rats (Charles River-CD); conditions: for Body Wt. Change: Assay 2; for Granulosimer Net weight: Assay 1, six animals per group, 7 days, ± 2 S.E. of mean
Procedure: The assay method employed to test the Formula I, II, III, IV and V compounds as local anti-inflammatory agents is a modification of the method described by S. L. Steelman, et al. [Steroids, 1, 163 (1963)] as follows:
(§2) Male rats (Charles River-CD) of about 150-160 grams in weight were subcutaneously implanted in the abdominal area with two pellets each. Five animals were used per group. The pellets used were preweighed and all used in a given assay were ±1 mg from one another. The compounds were dissolved in absolute ethanol and the indicated dose applied to each pellet in 0.2 ml. The alcohol was removed in vacuo overnight. Just prior to implantation, each pellet was moistened with 0.2 ml of 0.9% saline containing 1 mg each of penicillin and streptomycin. After seven days, the pellets were dissected out together with adhering granulomatous tissue. After drying in a vacuum oven overnight at 60°-65° C., the pellets were weighed. The difference in weight between the original pellet weight and the implanted pellet weight was used as a measure of cellular proliferation (granuloma). The lower the net weight, the more anti-inflammatory activity.
Following the procedure of the Assay Method described above, somatostatin (SRIF) was tested for its anti-inflammatory activity. The structure of somatostatin is: [drawing 5]
Six animals per group were used in this test and the results obtained are shown in Table I below wherein hydrocortisone was used as a positive control:
The results obtained following the Assay Method described above using Compound 8 of Formula I are shown below in Table II wherein hydrocortisone was used as a positive control.
as §1

[3] = test system: cellular proliferation (granuloma); assay: Pellet granuloma assay, compounds administered subcutaneously as saline injections (Assay 3); assay type: in vivo, rats (Charles River-CD)
Procedure: as §2
Following the procedure described above for Assau 1, additional tests were conducted except that the compounds were administered subcutaneously as saline injections. The tests were carried out on six animals per group and the results obtained are shown below in Table III.

[4] = administered subcutaneously, Table III

CC(C)[C@@H]1NC(=O)[C@H](CCCCN)NC(=O)[C@@H](Cc2c[nH]c3ccccc23)NC(=O)[C@H](Cc2ccc(O)cc2)NC(=O)[C@H](C)N(C)C(=O)[C@H](Cc2c[nH]c3ccccc23)NC1=O [9/I, Cyclo-(N-Me-Ala-Tyr-D-Trp-Lys-Val-Trp)] (HELM PEPTIDE1{K.V.W.[meA].Y.[dW]}$PEPTIDE1,PEPTIDE1,1:R1-6:R2$$$V2.0)
Potency Relative to Somatostatin (SRIF) [1]: 20-35

CC(C)[C@@H]1NC(=O)[C@H](CCCCN)NC(=O)[C@H](Cc2c[nH]c3ccccc23)NC(=O)[C@H](Cc2ccc(O)cc2)NC(=O)[C@H](C)N(C)C(=O)[C@H](Cc2ccccc2)NC1=O [10/I, Cyclo-(N-Me-Ala-Tyr-L-Trp-Lys-Val-Phe)]
Potency Relative to Somatostatin (SRIF) [1]: 50

C[C@@H]1NC(=O)[C@H](CO)NC(=O)[C@H](CCCCN)NC(=O)[C@@H](Cc2c[nH]c3ccccc23)NC(=O)[C@H](Cc2c[nH]cn2)NC(=O)[C@H](Cc2ccccc2)N(C)C1=O [11/I, Cyclo-(Ser-Ala-N-Me-Phe-His-D-Trp-Lys)] (HELM PEPTIDE1{A.[meF].H.[dW].K.S}$PEPTIDE1,PEPTIDE1,1:R1-6:R2$$$V2.0)
Potency Relative to Somatostatin (SRIF) [1]: 200

C[C@@H](O)[C@@H]1NC(=O)[C@H](CCCCN)NC(=O)[C@@H](Cc2c[nH]c3ccccc23)NC(=O)[C@H](Cc2ccccc2)NC(=O)[C@@H]2CCCN2C(=O)[C@H](Cc2ccccc2)NC1=O [13/II, Cyclo-(Pro-Phe-D-Trp-Lys-Thr-Phe)] (HELM PEPTIDE1{P.F.[dW].K.T.F}$PEPTIDE1,PEPTIDE1,1:R1-6:R2$$$V2.0)
Potency Relative to Somatostatin (SRIF) [1]: 6

CC(C)[C@@H]1NC(=O)[C@H](CCCCN)NC(=O)[C@@H](Cc2c[nH]c3ccccc23)NC(=O)[C@H](Cc2ccc(O)cc2)NC(=O)[C@H](C)N(C)C(=O)[C@H](Cc2ccccc2)NC1=O [Compound 8 of Formula I, Cyclo-(N-Me-Ala-Tyr-D-Trp-Lys-Val-Phe)]
Body Wt. Change ([2]; 10 mcg/pellet): +43 gm | Body Wt. Change ([2]; 100 mcg/pellet): +40 gm | anti-inflammatory activity (in words) ([2]; doses of 100-200 micrograms per pellet, Table II): significant activity | effect on adrenal weight (in words) [3, 4]: slight decrease in the adrenal weight | anti-inflammatory activity (in words) ([3]; administered systemically, i.e., subcutaneously): no anti-inflammatory activity | Avg. Adrenal wt. ([3]; daily dose 200 mcg subcutaneously, ± S.E. of mean): 36 ± 2 mg | Potency Relative to Somatostatin (SRIF) [1]: 50-100

C[C@]12CCC(=O)C=C1CC[C@@H]1[C@@H]2[C@@H](O)C[C@@]2(C)[C@H]1CC[C@]2(O)C(=O)CO [Hydrocortisone, hydrocortisone]
Body Wt. Change ([2]; 200 mcg/pellet): +44 gm | Granulosimer Net weight ([2]; 300 mcg/pellet): 24 ± 2 mg | Body Wt. Change ([2]; 1000 mcg/pellet): +41 gm | activity (in words) [3, 4]: typical activity

C[C@H](N)C(=O)NCC(=O)N[C@H]1CSSC[C@@H](C(=O)O)NC(=O)[C@H](CO)NC(=O)[C@H]([C@@H](C)O)NC(=O)[C@H](Cc2ccccc2)NC(=O)[C@H]([C@@H](C)O)NC(=O)[C@H](CCCCN)NC(=O)[C@H](Cc2c[nH]c3ccccc23)NC(=O)[C@H](Cc2ccccc2)NC(=O)[C@H](Cc2ccccc2)NC(=O)[C@H](CC(N)=O)NC(=O)[C@H](CCCCN)NC1=O [SRIF, somatostatin]
Granulosimer Net weight ([2]; 1500 mcg/pellet): 25 ± 1 mg | anti-inflammatory activity (in words) ([2]; Assay 1, Table I, on pellet): effective anti-inflammatory agent | Potency Relative to Somatostatin (SRIF) [1]: 1
